Experimental data taken from patent US20240374581A1, “SALT TYPES OF TRICYCLIC TETRAHYDRO ISOQUINOLINE DERIVATIVE” (JIANGSU HENGRUI PHARMACEUTICALS CO., LTD., priority 2021, published 2024).

Key:
[1] = Hygroscopicity study (DVS); format: physicochemical; conditions: 25° C.; for Hygroscopicity grade: 0% RH-80.0% RH; for Hygroscopicity 0% RH-80.0% RH / Hygroscopicity 0.0% RH-95.0% RH: DVS
Experimental: DVS refers to dynamic vapor sorption: The measurement was conducted on SMS DVS Advantage; at 25° C., the humidity was changed as follows: 50%-95%-0%-95%-50%, in steps of 10% (5% for the last step) (specific humidity ranges are shown in corresponding patterns, and those listed here were used in most cases); the criterion was dm/dt≤0.002%.
The measurement was conducted with a Surface Measurement Systems intrinsic at 25° C., starting from 50% humidity in humidity range of 0%-95%, in steps of 10%; the criterion was dM/dT≤0.002% and TMAX of 360 min in two cycles.

[2] = Long-term/accelerated stability; format: physicochemical; conditions: for Crystal form: up to 3 months; for physical and chemical stability (conclusion): long-term/accelerated study for 3 months
[3] = Influencing factor stability study; conditions: for physical and chemical stability (conclusion): influencing factors

O=S(=O)(O)O.[2H]C1([2H])Oc2cc3c(cc2O1)[C@@H](c1ccc(NC2CN(CCCF)C2)cn1)N(CC(F)(F)CO)[C@H](C)C3 [Crystal form A of sulfate]
Hygroscopicity grade [1]: hygroscopic | Crystal form after DVS [1]: Deliquescence | Hygroscopicity 0% RH-80.0% RH [1]: 13.3% | Hygroscopicity 0.0% RH-95.0% RH [1]: 44.1% | Crystal form after DVS ([1]; listed as crystal form A): deliquesced | Purity (%) 1 month ([2]; 25° C./60% RH): 98.9% | Purity (%) 2 months ([2]; 25° C./60% RH): 98.7% | Purity (%) 3 months ([2]; 25° C./60% RH): 98.8% | Purity (%) 7 days ([2]; 25° C./60% RH): 99.0% | Purity (%) 14 days ([2]; 25° C./60% RH): 98.9% | Purity (%) Initial ([2]; 25° C./60% RH): 98.9% | Crystal form ([2]; 25° C./60% RH): Unchanged | Purity (%) 1 month ([2]; 40° C./75% RH): 98.7% | Purity (%) 2 months ([2]; 40° C./75% RH): 98.2% | Purity (%) 3 months ([2]; 40° C./75% RH): 98.1% | Purity (%) 7 days ([2]; 40° C./75% RH): 99.2% | Purity (%) 14 days ([2]; 40° C./75% RH): 98.9% | Purity (%) Initial ([2]; 40° C./75% RH): 98.9% | Crystal form ([2]; 40° C./75% RH): Unchanged | physical and chemical stability (conclusion) [2]: good physical and chemical stability | Crystal form ([3]; 40° C., 1 month): Crystal form A | Purity (%) ([3]; 40° C., 1 month): 98.0% | Crystal form ([3]; 40° C., 5 days): Crystal form A | Purity (%) ([3]; 40° C., 5 days): 98.8% | Crystal form ([3]; 40° C., 10 days): Crystal form A | Purity (%) ([3]; 40° C., 10 days): 98.7% | Crystal form ([3]; 60° C., 1 month): Crystal form A | Purity (%) ([3]; 60° C., 1 month): 97.3% | Crystal form ([3]; 60° C., 5 days): Crystal form A | Purity (%) ([3]; 60° C., 5 days): 98.7% | Crystal form ([3]; 60° C., 10 days): Crystal form A | Purity (%) ([3]; 60° C., 10 days): 98.6% | behaviour under the high-humidity conditions (conclusion) ([3]; 75% RH and 92.5% RH, 30 days): deliquesced | Crystal form ([3]; 75% RH, 1 month): Deliquescence | Purity (%) ([3]; 75% RH, 1 month): 94.8% | Crystal form ([3]; 75% RH, 5 days): Deliquescence | Purity (%) ([3]; 75% RH, 5 days): 97.8% | Crystal form ([3]; 75% RH, 10 days): Deliquescence | Purity (%) ([3]; 75% RH, 10 days): 96.6% | Crystal form ([3]; 92.5% RH, 1 month): Deliquescence | Purity (%) ([3]; 92.5% RH, 1 month): 95.1% | Crystal form ([3]; 92.5% RH, 5 days): Deliquescence | Purity (%) ([3]; 92.5% RH, 5 days): 98.1% | Crystal form ([3]; 92.5% RH, 10 days): Deliquescence | Purity (%) ([3]; 92.5% RH, 10 days): 97.3% | Crystal form ([3]; 4500 Lux, 1 month): Crystal form A | Purity (%) ([3]; 4500 Lux, 1 month): 92.9% | Crystal form ([3]; 4500 Lux, 5 days): Crystal form A | Purity (%) ([3]; 4500 Lux, 5 days): 97.4% | Crystal form ([3]; 4500 Lux, 10 days): Crystal form A | Purity (%) ([3]; 4500 Lux, 10 days): 96.0% | Crystal form ([3]; Initial, 0 days): Crystal form A | Purity (%) ([3]; Initial, 0 days): 98.9% | physical and chemical stability (conclusion) ([3]; 30 days): good physical and chemical stability under other conditions except the lighting condition

O=P(O)(O)O.O=P(O)(O)O.O=P(O)(O)O.[2H]C1([2H])Oc2cc3c(cc2O1)[C@@H](c1ccc(NC2CN(CCCF)C2)cn1)N(CC(F)(F)CO)[C@H](C)C3 [Crystal form I of phosphate]
Hygroscopicity grade [1]: slightly | Crystal form after DVS [1]: Did not change | Hygroscopicity 0% RH-80.0% RH [1]: 1.2% | Hygroscopicity 0.0% RH-95.0% RH [1]: 7.1% | Crystal form after DVS ([1]; listed as crystal form I): did not change | Purity (%) 1 month ([2]; 25° C./60% RH): 99.3% | Purity (%) 2 months ([2]; 25° C./60% RH): 99.3% | Purity (%) 3 months ([2]; 25° C./60% RH): 99.2% | Purity (%) 7 days ([2]; 25° C./60% RH): 99.4% | Purity (%) 14 days ([2]; 25° C./60% RH): 99.5% | Purity (%) Initial ([2]; 25° C./60% RH): 99.4% | Crystal form ([2]; 25° C./60% RH): Unchanged | Purity (%) 1 month ([2]; 40° C./75% RH): 99.3% | Purity (%) 2 months ([2]; 40° C./75% RH): 99.2% | Purity (%) 3 months ([2]; 40° C./75% RH): 99.0% | Purity (%) 7 days ([2]; 40° C./75% RH): 99.5% | Purity (%) 14 days ([2]; 40° C./75% RH): 99.5% | Purity (%) Initial ([2]; 40° C./75% RH): 99.4% | Crystal form ([2]; 40° C./75% RH): Unchanged | physical and chemical stability (conclusion) [2]: good physical and chemical stability | Crystal form ([3]; 40° C., 1 month): Crystal form I | Purity (%) ([3]; 40° C., 1 month): 99.1% | Crystal form ([3]; 40° C., 5 days): Crystal form I | Purity (%) ([3]; 40° C., 5 days): 99.3% | Crystal form ([3]; 40° C., 10 days): Crystal form I | Purity (%) ([3]; 40° C., 10 days): 99.1% | Crystal form ([3]; 60° C., 1 month): Crystal form I | Purity (%) ([3]; 60° C., 1 month): 98.8% | Crystal form ([3]; 60° C., 5 days): Crystal form I | Purity (%) ([3]; 60° C., 5 days): 99.1% | Crystal form ([3]; 60° C., 10 days): Crystal form I | Purity (%) ([3]; 60° C., 10 days): 99.1% | Crystal form ([3]; 75% RH, 1 month): Crystal form I | Purity (%) ([3]; 75% RH, 1 month): 99.4% | Crystal form ([3]; 75% RH, 5 days): Crystal form I | Purity (%) ([3]; 75% RH, 5 days): 99.3% | Crystal form ([3]; 75% RH, 10 days): Crystal form I | Purity (%) ([3]; 75% RH, 10 days): 99.4% | Crystal form ([3]; 92.5% RH, 1 month): Crystal form I | Purity (%) ([3]; 92.5% RH, 1 month): 99.3% | Crystal form ([3]; 92.5% RH, 5 days): Crystal form I | Purity (%) ([3]; 92.5% RH, 5 days): 99.3% | Crystal form ([3]; 92.5% RH, 10 days): Crystal form I | Purity (%) ([3]; 92.5% RH, 10 days): 99.3% | Crystal form ([3]; 4500 Lux, 1 month): Crystal form I | Purity (%) ([3]; 4500 Lux, 1 month): 98.4% | Crystal form ([3]; 4500 Lux, 5 days): Crystal form I | Purity (%) ([3]; 4500 Lux, 5 days): 98.9% | Crystal form ([3]; 4500 Lux, 10 days): Crystal form I | Purity (%) ([3]; 4500 Lux, 10 days): 98.8% | Crystal form ([3]; Initial, 0 days): Crystal form I | Purity (%) ([3]; Initial, 0 days): 99.4% | physical and chemical stability (conclusion) ([3]; 30 days): good physical and chemical stability
